Data as given in patent publication US20030050307A1, “Novel indole derivatives” (H. Lundbeck A/S, priority 1999, published 2003).
Counter-ions that a name gives are not always drawn. One block for each compound: values may come before it.

What was measured:
[1] = molecular target: T1, human cloned dopamine D4.2-receptors (Homo sapiens, UniProt P21917, DEL265-296); assay: Inhibition of the binding of 3H-YM-09151-2 to human dopamine D4 receptors; details: [3H]YM-09151-2 0.06 nM; for IC50: membranes of CHO-cells expressing human D4.2
T1 construct: expressed in transfected cells; host or cells: CHO cells
T1 sequence (P21917 with tags, fused parts or gaps DEL265-296): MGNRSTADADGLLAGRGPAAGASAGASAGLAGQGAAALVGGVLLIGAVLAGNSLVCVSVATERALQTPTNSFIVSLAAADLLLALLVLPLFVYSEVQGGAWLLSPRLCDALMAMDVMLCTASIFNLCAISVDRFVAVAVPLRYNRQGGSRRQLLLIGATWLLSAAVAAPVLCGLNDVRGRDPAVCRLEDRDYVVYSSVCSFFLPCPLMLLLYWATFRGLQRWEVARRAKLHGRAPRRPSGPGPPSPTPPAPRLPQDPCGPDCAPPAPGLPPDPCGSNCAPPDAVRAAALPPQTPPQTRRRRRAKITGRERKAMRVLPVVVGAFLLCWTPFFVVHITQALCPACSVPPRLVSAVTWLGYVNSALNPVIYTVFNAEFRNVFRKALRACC
Method: Inhibition of the Binding of ^3H-YM-09151-2 to Human Dopamine D4 Receptors
By this method, the inhibition by drugs of the binding of [^3H]YM-09151-2 (0.06 nM) to membranes of human cloned dopamine D4.2-receptors expressed in CHO-cells is determined in vitro. Method modified from NEN Life Science Products, Inc., technical data certificate PC2533-10/96.

[2] = molecular target: T2, cloned human 5-HT1A-receptors (Homo sapiens, UniProt P08908); assay: Inhibition of 3H-5-CT binding to human 5-HT1A receptors; details: transfected HeLa cells (HA7), 15 minutes at 37° C., pH 7.7
T2 construct: expressed in transfected cells; host or cells: HeLa cells (HA7)
T2 sequence (P08908 1-422): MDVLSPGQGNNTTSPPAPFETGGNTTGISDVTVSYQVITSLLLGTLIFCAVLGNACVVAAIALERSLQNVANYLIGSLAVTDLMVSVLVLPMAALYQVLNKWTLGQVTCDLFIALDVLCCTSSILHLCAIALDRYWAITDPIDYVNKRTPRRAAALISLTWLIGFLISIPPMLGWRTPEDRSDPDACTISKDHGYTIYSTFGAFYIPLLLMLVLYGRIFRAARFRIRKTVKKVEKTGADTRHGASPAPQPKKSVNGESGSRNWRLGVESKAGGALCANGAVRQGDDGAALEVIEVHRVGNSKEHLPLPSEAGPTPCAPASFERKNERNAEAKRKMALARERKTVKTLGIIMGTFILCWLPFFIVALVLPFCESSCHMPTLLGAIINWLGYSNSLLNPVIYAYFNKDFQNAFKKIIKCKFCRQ
Method: The affinity of the compounds of the invention to 5-HT1A receptors was determined by measuring the inhibition of binding of a radioactive ligand at 5-HT1A-receptors as described in the following test:
Inhibition of ^3H-5-CT Binding to Human 5-HT1A Receptors.
By this method, the inhibition by drugs of the binding of the 5-HT1A-agonist ^3H-5-carboxamido tryptamine (^3H-5-CT) to cloned human 5-HT1A-receptors stably expressed in transfected HeLa cells (HA7) (Fargin, A. et al. J. Biol. Chem. 1989, 264, 14848) is determined in vitro. The assay was performed as a modification of the method described by Harrington, M. A. et al. J. Pharmacol. Exp. Ther. 1994, 268, 1098. Human 5-HT1A-receptors (40 μg of cell homogenate) were incubated for 15 minutes at 37° C. in 50 mM Tris buffer at pH 7.7 in the presence of ^3H-5-CT. Non-specific binding was determined by including 10 μM of metergoline. The reaction was terminated by rapid filtration through Unifilter GF/B filters on a Tomtec Cell Harvester. Filters were counted in a Packard Top Counter.

[3] = at 100 nM, CHO-cell membranes, human D4.2

Structure (SMILES): Cc1cccc(Cl)c1SCCCCN1CCN(c2cccc3[nH]ccc23)CC1 (as salt: oxalate) [Compound 2e, 4-{4-[4-(2-Chloro-6-methyl-phenylsulfanyl)-butyl]-piperazin-1-yl}-1H-indole]
melting point: 199 to 210 °C

Structure (SMILES): Fc1ccc(OCCCCN2CCN(c3cccc4[nH]ccc34)CC2)c(Br)c1 (as salt: oxalate) [Compound 2d, 4-{4-[4-(2-Bromo-4-fluoro-phenoxy)-butyl]-piperazin-1-yl}-1H-indole]
melting point: 218 to 220 °C

Structure (SMILES): Clc1ccccc1OCCCN1CCN(c2cccc3[nH]ccc23)CC1 [Compound 1, 4-{4-[3-(2-Chloro-phenoxy)-propyl]-piperazin-1-yl}-1H-indole]
IC50 [1]: 92 nM | IC50 [2]: 12 nM | melting point: 189 to 199 °C

Structure (SMILES): Clc1cccc(Cl)c1SCCN1CCN(c2cccc3[nH]ccc23)CC1 (as salt: oxalate) [Compound 3b, 4-(4-[2-(2,6-Dichloro-phenylsulfanyl)-ethyl]-piperazin-1-yl)-1H-indole]
melting point: 130 to 133 °C (dec.)

Structure (SMILES): Clc1ccc(SCCN2CCN(c3cccc4[nH]ccc34)CC2)cc1Cl (as salt: oxalate) [Compound 3c, 4-{4-[2-(3,4-Dichloro-phenylsulfanyl)-ethyl]-piperazin-1-yl}-1H-indole]
melting point: 140 to 141 °C

Structure (SMILES): Brc1ccccc1OCCCN1CCN(c2cccc3[nH]ccc23)CC1 (as salt: oxalate) [Compound 2c, 4-{4-[3-(2-Bromo-phenoxy)-propyl]-piperazin-1-yl}-1H-indole]
melting point: 206 to 208 °C

Structure (SMILES): Fc1cc(Br)cc(F)c1OCCCCN1CCN(c2cccc3[nH]ccc23)CC1 [Compound 4j, 4-{4-[4-(4-Bromo-2,6-difluoro-phenoxy)-butyl]-piperazin-1-yl}-1H-indole]
IC50 [1]: 23 nM | IC50 [2]: 17 nM

Structure (SMILES): Clc1cccc(Cl)c1SCCCN1CCN(c2cccc3[nH]ccc23)CC1 [Compound 4q, 4-{4-[3-(2,6-Dichloro-phenylsulfanyl)-propyl]-piperazin-1-yl}-1H-indole]
IC50 [1]: 7.2 nM | IC50 [2]: 3.5 nM

Structure (SMILES): Fc1cc(Cl)c(OCCCN2CCN(c3cccc4[nH]ccc34)CC2)c(Cl)c1 [Compound 4i, 4-{4-[3-(2,6-Dichloro-4-fluoro-phenoxy)-propyl]-piperazin-1-yl}-1H-indole]
IC50 [1]: 16 nM | IC50 [2]: 1 nM

Structure (SMILES): Fc1ccc(OCCCN2CCN(c3cccc4[nH]ccc34)CC2)c(F)c1 [Compound 4c]
IC50 [1]: 1.6 nM | IC50 [2]: 5.4 nM

Structure (SMILES): Clc1cccc(Cl)c1SCCCCN1CCN(c2cccc3[nH]ccc23)CC1 [Compound 4d, 4-{4-[4-(2,6-Dichloro-phenylsulfanyl)-butyl]-piperazin-1-yl}-1H-indole]
IC50 [1]: 1.8 nM | IC50 [2]: 7.1 nM

Structure (SMILES): Brc1ccccc1SCCCN1CCN(c2cccc3[nH]ccc23)CC1 (as salt: oxalate) [Compound 2b, 4-(4-[3-(2-Bromo-phenylsulfanyl)-propyl]-piperazin-1-yl}-1H-indole]
melting point: 163 to 166 °C

Structure (SMILES): Cc1cccc(Cl)c1SCCCCN1CCN(c2cccc3[nH]ccc23)CC1 [Compound 2e, 4-{4-[4-(2-Chloro-6-methyl-phenylsulfanyl)-butyl]-piperazin-1-yl}-1H-indole]
IC50 [1]: 2.2 nM | IC50 [2]: 4.5 nM

Structure (SMILES): Brc1cc(Br)c(OCCCN2CCN(c3cccc4[nH]ccc34)CC2)c(Br)c1 [Compound 4l, 14-{4-[3-(2,4,6-Tribromo-phenoxy)-propyl]-piperazin-1-yl}-1H-indole]
IC50 [1]: 28 nM | IC50 [2]: 1.1 nM

Structure (SMILES): Brc1ccccc1SCCCN1CCN(c2cccc3[nH]ccc23)CC1 [Compound 2b, 4-(4-[3-(2-Bromo-phenylsulfanyl)-propyl]-piperazin-1-yl}-1H-indole]
IC50 [1]: 1.2 nM | IC50 [2]: 2.7 nM

Structure (SMILES): Fc1ccc(SCCCN2CCN(c3cccc4[nH]ccc34)CC2)c(Cl)c1 [Compound 4a]
IC50 [1]: 0.52 nM | IC50 [2]: 9.3 nM

Structure (SMILES): Fc1cc(Cl)c(OCCCCN2CCN(c3cccc4[nH]ccc34)CC2)c(Cl)c1 [Compound 4g, 4-{4-[4-(2,6-Dichloro-4-fluoro-phenoxy)-butyl]-piperazin-1-yl}-1H-indole]
IC50 [1]: 4.9 nM | IC50 [2]: 2.4 nM

Structure (SMILES): N#Cc1ccc(OCCCCN2CCN(c3cccc4[nH]ccc34)CC2)c(Cl)c1 [Compound 5ap]
Inhibition of 3H-YM-09151 binding % inhibition at 100 nM [1, 3]: 106% | Inhibition of 3H-5-CT Binding % inhibition at 50 nM ([2]; at 50 nM): 100%

Second part, the compound after the results:

inhibition at 0.1 µM [1, 3]: 97% | inhibition at 0.05 µM ([2]; at 50 nM): 99%
Structure (SMILES): Clc1ccc(Cl)c(OCCCCN2CCN(c3cccc4[nH]ccc34)CC2)c1 [Compound 5au, 4-{4-[4-(2,5-Dichloro-phenoxy)-butyl]-piperazin-1-yl}-1H-indole]

inhibition at 0.1 µM [1, 3]: 100% | inhibition at 0.05 µM ([2]; at 50 nM): 77%
Structure (SMILES): c1ccc(SCCCCN2CCN(c3cccc4[nH]ccc34)CC2)cc1 [Compound 5aj, 4-[4-(4-Phenylsulfanyl-butyl)-piperazin-1-yl]-1H-indole]

inhibition at 0.1 µM [1, 3]: 94% | inhibition at 0.05 µM ([2]; at 50 nM): 98%
Structure (SMILES): CC(C)c1ccccc1SCCCN1CCN(c2cccc3[nH]ccc23)CC1 [Compound 5az, 4-{4-[3-(2-Isopropyl-phenylsulfanyl)-propyl]-piperazin-1-yl}-1H-indole]

inhibition at 0.1 µM [1, 3]: 107% | inhibition at 0.05 µM ([2]; at 50 nM): 69%
Structure (SMILES): COc1ccc(SCCCCN2CCN(c3cccc4[nH]ccc34)CC2)cc1OC [Compound 5av, 4-{4-[4-(3,4-Dimethoxy-phenylsulfanyl)-butyl]-piperazin-1-yl}-1H-indole]

inhibition at 0.1 µM [1, 3]: 99% | inhibition at 0.05 µM ([2]; at 50 nM): 98%
Structure (SMILES): FC(F)(F)c1ccc(SCCCN2CCN(c3cccc4[nH]ccc34)CC2)cc1 [Compound 5aw, 4-{4-[3-(4-Trifluoromethyl-phenylsulfanyl)-propyl]-piperazin-1-yl}-1H-indole]

inhibition at 0.1 µM [1, 3]: 81% | inhibition at 0.05 µM ([2]; at 50 nM): 78%
Structure (SMILES): Cc1cccc(C)c1OCCN1CCN(c2cccc3[nH]ccc23)CC1 [Compound 5aa, 4-{4-[2-(2,6-Dimethyl-phenoxy)-ethyl]-piperazin-1-yl}-1H-indole]

inhibition at 0.1 µM [1, 3]: 94% | inhibition at 0.05 µM ([2]; at 50 nM): 94%
Structure (SMILES): CC(C)c1ccccc1SCCCCN1CCN(c2cccc3[nH]ccc23)CC1 [Compound 5bb, 4-{4-[4-(2-Isopropyl-phenylsulfanyl)-butyl]-piperazin-1-yl}-1H-indole]

inhibition at 0.1 µM [1, 3]: 96% | inhibition at 0.05 µM ([2]; at 50 nM): 92%
Structure (SMILES): Clc1ccc(Cl)c(SCCN2CCN(c3cccc4[nH]ccc34)CC2)c1 [Compound 5al, 4-{4-[2-(2,5-Dichloro-phenylsulfanyl)-ethyl]-piperazin-1-yl}-1H-indole]

IC50 [1]: 7.2 nM | inhibition at 0.05 µM ([2]; at 50 nM): 93%
Structure (SMILES): FC(F)(F)c1ccccc1SCCCN1CCN(c2cccc3[nH]ccc23)CC1 [Compound 5af, 4-{4-[3-(2-Trifluoromethyl-phenylsulfanyl)-propyl]-piperazin-1-yl}-1H-indole]
